How the values were obtained:
Assay in all cases: relative viability (nuclei count vs DMSO), 5 days (fraction); higher = more cells survive
GW-2580 + AZD7762 = compound: COC1=CC=C(C=C1)COC2=C(C=C(C=C2)CC3=CN=C(N=C3N)N)OC [GW-2580] + NC(=O)Nc1cc(-c2cccc(F)c2)sc1C(=O)N[C@H]1CCCNC1 [AZD7762] (partner 0.2 µM)
Summary of the method: (§1)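 After 5 days of treatment, lung cancer cells in 1536-well plates were fixed and stained in a single step (final 0.05% Triton X-100, 1% formaldehyde, 1 ug/ml Hoechst) and their nuclei counted on 4× images. Treatment had been applied by pin tool the day after seeding as one drug alone or as a fixed anchor-drug dose with five library-drug doses (not always all listed) in √10 steps. Relative viability is the nuclei count of treated wells divided by that of vehicle wells, and values are medians of duplicate plates.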

GW-2580 + Luminespib = compound: COC1=CC=C(C=C1)COC2=C(C=C(C=C2)CC3=CN=C(N=C3N)N)OC [GW-2580] + CCNC(=O)c1noc(-c2cc(C(C)C)c(O)cc2O)c1-c1ccc(CN2CCOCC2)cc1 [Luminespib] (partner 0.01 µM)
Summary of the method: as §1

Fedratinib + AZD7762 = compound: Cc1cnc(Nc2ccc(OCCN3CCCC3)cc2)nc1Nc1cccc(S(=O)(=O)NC(C)(C)C)c1 [Fedratinib] + NC(=O)Nc1cc(-c2cccc(F)c2)sc1C(=O)N[C@H]1CCCNC1 [AZD7762] (partner 0.2 µM)
Summary of the method: as §1

GW-2580 + Vorinostat = compound: COC1=CC=C(C=C1)COC2=C(C=C(C=C2)CC3=CN=C(N=C3N)N)OC [GW-2580] + O=C(CCCCCCC(=O)Nc1ccccc1)NO [Vorinostat] (partner 1 µM)
Summary of the method: as §1

GW-2580 + Bortezomib = compound: COC1=CC=C(C=C1)COC2=C(C=C(C=C2)CC3=CN=C(N=C3N)N)OC [GW-2580] + CC(C)C[C@H](NC(=O)[C@H](Cc1ccccc1)NC(=O)c1cnccn1)B(O)O [Bortezomib] (partner 0.002 µM)
Summary of the method: as §1

Cell Line	relative viability (GW-2580 + AZD7762; first compound 0.08 µM)	relative viability (GW-2580 + AZD7762; first compound 0.8 µM)	relative viability (GW-2580 + AZD7762; first compound 2.53 µM)	relative viability (GW-2580 + AZD7762; first compound 8 µM)	relative viability (GW-2580 + Luminespib; first compound 0.08 µM)	relative viability (GW-2580 + Luminespib; first compound 0.8 µM)	relative viability (GW-2580 + Luminespib; first compound 2.53 µM)	relative viability (GW-2580 + Luminespib; first compound 8 µM)	relative viability (Fedratinib + AZD7762; first compound 0.1 µM)	relative viability (Fedratinib + AZD7762; first compound 0.3162 µM)	relative viability (Fedratinib + AZD7762; first compound 1 µM)	relative viability (GW-2580 + Vorinostat; first compound 0.08 µM)	relative viability (GW-2580 + Vorinostat; first compound 0.8 µM)	relative viability (GW-2580 + Vorinostat; first compound 2.53 µM)	relative viability (GW-2580 + Vorinostat; first compound 8 µM)	relative viability (GW-2580 + Bortezomib; first compound 0.08 µM)	relative viability (GW-2580 + Bortezomib; first compound 0.8 µM)	relative viability (GW-2580 + Bortezomib; first compound 2.53 µM)	relative viability (GW-2580 + Bortezomib; first compound 8 µM)
NCI-H838	0.976	0.998	0.92	0.986	0.266	0.31	0.376	0.338	0.961	0.913	0.906	0.789	0.782	0.691	0.771	0.943	0.831	0.691	1.02
A-427	0.753	0.668	0.568	0.627	1.1	0.83	0.927	0.798	0.573	0.671	0.556	0.534	0.97	0.806	0.848	1.14	1.13	0.915	0.878
LCLC-97TM1	0.2	0.285	0.281	0.212	0.771	0.728	0.799	0.694	0.342	0.154	0.21	0.806	0.74	0.659	0.684	0.404	1.02	0.288	0.982
LCLC-103H	0.884	0.838	0.648	0.716	1.01	0.895	0.844	0.839	0.857	0.72	0.647	0.753	0.851	0.791	0.671	1.28	1.11	1.03	0.96
PC-3 [JPC-3]	0.732	1.09	0.897	0.781	0.719	0.774	0.544	0.705	0.775	0.976	0.668	0.917	1.26	0.572	0.639	0.886	1.01	0.846	0.792
BEN	0.642	0.809	0.599	0.751	0.353	0.332	0.29	0.264	0.623	0.553	0.568	0.587	0.565	0.559	0.633	0.674	0.879	0.55	0.799
NCI-H1666	0.824	1.1	0.852	0.826	0.984	1.09	0.918	0.928	0.751	0.836	0.807	1.08	1.16	0.94	0.967	0.727	1.2	0.791	0.89
LC-2-ad	0.866	0.948	0.826	0.873	1.03	1.07	1.12	1.02	0.829	0.863	0.818	0.728	0.751	0.76	0.712	1.05	1.08	0.922	1.08
ChaGo-K-1	0.933	0.887	0.839	0.878	0.757	0.677	0.501	0.562	0.921	0.829	0.81	0.743	0.726	0.768	0.794	0.996	1.09	0.989	1
NCI-H1975	0.829	0.805	0.598	0.815	0.186	0.5	0.162	0.193	0.562	0.676	0.566	0.755	0.75	0.654	0.647	0.373	0.368	0.317	0.366
NCI-H1993	0.851	0.772	0.687	0.868	0.853	0.907	0.71	0.852	0.816	0.694	0.688	0.993	0.887	0.661	0.868	1.27	1.33	–	0.995
RERF-LC-KJ	1.11	1.25	0.825	0.913	1.23	1.56	1.35	1.14	0.895	0.918	0.953	0.663	0.792	0.629	0.684	1.22	1.06	1.04	1.08
NCI-H23	0.264	0.21	0.243	0.179	0.226	0.194	0.213	0.191	0.356	0.27	0.183	0.53	0.782	0.462	0.546	0.979	0.988	1.12	1.04
EMC-BAC-2	1.15	1.33	–	1.01	1.27	1.3	1.17	1.11	1.16	1.1	0.912	0.418	0.733	–	0.376	1.11	1.16	1.02	1.05
NCI-H2405	0.793	0.712	0.703	0.581	0.727	0.604	0.671	0.586	0.7	0.764	0.528	1.05	1.19	0.9	0.785	1.02	1.03	0.807	0.951

From the supplement of paper PMC10307832
